{"source": "patent US20040248775A1", "about": "“Methods for screening inhibitors of apoptosis” (Wyeth, priority 2003, published 2004)", "target": "T1, His6-NALP1 NBS mutant (G339E, K340A) (Homo sapiens, UniProt Q9C000, G339E/K340A)", "T1 construct": "made in house; host or cells: COS-7 cells, transient transfection, Ni-NTA purification", "T1 sequence (Q9C000 1-1473 G339E/K340A)": "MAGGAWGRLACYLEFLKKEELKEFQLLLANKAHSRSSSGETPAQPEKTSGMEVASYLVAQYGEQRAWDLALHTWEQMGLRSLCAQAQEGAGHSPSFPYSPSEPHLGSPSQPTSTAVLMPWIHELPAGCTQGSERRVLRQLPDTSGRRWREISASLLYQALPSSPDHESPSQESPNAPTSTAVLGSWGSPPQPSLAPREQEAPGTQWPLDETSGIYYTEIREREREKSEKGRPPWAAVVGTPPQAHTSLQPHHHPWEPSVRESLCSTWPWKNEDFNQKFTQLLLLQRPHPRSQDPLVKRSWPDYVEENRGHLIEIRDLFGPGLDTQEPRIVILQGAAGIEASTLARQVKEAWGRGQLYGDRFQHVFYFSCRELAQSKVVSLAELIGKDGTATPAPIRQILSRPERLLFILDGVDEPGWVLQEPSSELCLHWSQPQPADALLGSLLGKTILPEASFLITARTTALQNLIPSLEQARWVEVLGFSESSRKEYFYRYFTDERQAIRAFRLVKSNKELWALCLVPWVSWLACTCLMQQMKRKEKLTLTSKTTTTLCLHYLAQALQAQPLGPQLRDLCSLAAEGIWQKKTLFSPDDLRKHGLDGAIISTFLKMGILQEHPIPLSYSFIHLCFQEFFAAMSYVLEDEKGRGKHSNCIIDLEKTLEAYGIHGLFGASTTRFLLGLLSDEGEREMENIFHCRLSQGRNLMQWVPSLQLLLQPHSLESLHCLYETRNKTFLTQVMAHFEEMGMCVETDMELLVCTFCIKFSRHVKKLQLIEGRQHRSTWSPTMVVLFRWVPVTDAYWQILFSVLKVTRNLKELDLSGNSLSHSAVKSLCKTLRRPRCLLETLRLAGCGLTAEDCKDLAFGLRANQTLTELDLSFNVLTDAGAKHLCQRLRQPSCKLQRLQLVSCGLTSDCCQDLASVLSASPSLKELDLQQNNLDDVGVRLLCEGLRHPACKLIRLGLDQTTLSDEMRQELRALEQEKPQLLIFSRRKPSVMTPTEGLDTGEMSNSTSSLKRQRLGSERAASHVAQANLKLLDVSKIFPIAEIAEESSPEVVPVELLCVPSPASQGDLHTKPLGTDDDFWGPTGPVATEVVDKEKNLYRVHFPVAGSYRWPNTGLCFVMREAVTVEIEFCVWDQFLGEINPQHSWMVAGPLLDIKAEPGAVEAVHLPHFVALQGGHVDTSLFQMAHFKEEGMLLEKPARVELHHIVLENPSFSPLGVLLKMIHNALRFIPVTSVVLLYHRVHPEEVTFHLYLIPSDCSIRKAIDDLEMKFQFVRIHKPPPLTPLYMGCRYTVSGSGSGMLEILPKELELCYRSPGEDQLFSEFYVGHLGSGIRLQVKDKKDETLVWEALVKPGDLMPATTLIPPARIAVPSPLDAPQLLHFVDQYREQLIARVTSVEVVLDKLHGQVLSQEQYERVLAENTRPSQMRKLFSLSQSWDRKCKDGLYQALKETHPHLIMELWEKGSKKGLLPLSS", "test": "Ni flashplate dATPα35S binding assay, NBS mutant His6-NALP1", "details": "8 nM dATPα35S displaced by non-radiolabeled dATP", "method": "Production of purified NALP-Flashplate binding assay. NALP1 protein for in vitro binding assays was purified from transiently transfected cells. COS-7 cells were plated in DMEM, 10% fetal calf serum with amino acid supplements and antibiotics and allowed to grow to approximately 50% confluency. Large-scale preparations were performed in Cell Factories (NUNC) with approximately 600 μg plasmid DNA. Polyfect transfection reagent (Qiagen) was used as described by the manufacturer. After 24 hours, cells were collected by trypsinization, washed with fresh medium and then with PBS. Cells were lysed by resuspension in 10× cell volume of lysis buffer (140 mM NaCl, 0.1% Triton-X100, 0.1 mM DTT, 20 mM HEPES at pH 7.4 and protease inhibitor cocktail (Roche Diagnostics BmbH)). Lysates were centrifuged at approximately 7400×g for 30 minutes and supernatants were supplemented with glycerol to a final concentration of 10% and stored at −70° C. until purification. Protein concentrations were measured and samples normalized. Extracts were mixed with 1 ml Ni-NTA agarose equilibrated with the same buffer for 1 hour at 4° C. in the tube. Disposable columns were filled with the resin and flow-through collected. […] Reactions were stopped by aspirating solutions and washed once with Buffer B. Plates were counted in a Top Count scintillation counter (Packard).", "data": [{"compound": "Nc1ncnc2c1ncn2[C@H]1C[C@H](O)[C@@H](COP(=O)(O)OP(=O)(O)OP(=O)(O)O)O1", "note": "[dATP]", "values": [{"measurement": "specific binding of dATP to NBS mutant NALP1", "result": "failed to achieve significant binding"}]}]}
